Experimental data published in the NIST ThermoML archive (doi:10.1016/j.jct.2015.12.017).

Experiment: molar heat capacity at constant pressure
Settings: 101.33 kPa

O=P([O-])([O-])[O-].[Co+2].[Cs+] [cesium cobalt(II) phosphate]
Settings | molar heat capacity at constant pressure [J/K/mol]
304.98 K, Crystal 4, Vacuum adiabatic calorimetry | 136.11
305.47 K, Crystal 4, Vacuum adiabatic calorimetry | 136.19
306.97 K, Crystal 4, Vacuum adiabatic calorimetry | 137.44
307.51 K, Crystal 4, Vacuum adiabatic calorimetry | 137.6
308.95 K, Crystal 4, Vacuum adiabatic calorimetry | 138.69
309.32 K, Crystal 4, Vacuum adiabatic calorimetry | 139.1
310 K, Crystal 4, Vacuum adiabatic calorimetry | 136.94
310.91 K, Crystal 4, Vacuum adiabatic calorimetry | 142.43
311.46 K, Crystal 4, Vacuum adiabatic calorimetry | 142.34
312.84 K, Crystal 4, Vacuum adiabatic calorimetry | 144.42
313.4 K, Crystal 3, Vacuum adiabatic calorimetry | 139.93
313.4 K, Crystal 4, Vacuum adiabatic calorimetry | 137.85
313.44 K, Crystal 3, Vacuum adiabatic calorimetry | 144.34
314.77 K, Crystal 3, Vacuum adiabatic calorimetry | 143.84
315.42 K, Crystal 3, Vacuum adiabatic calorimetry | 144.09
316.69 K, Crystal 3, Vacuum adiabatic calorimetry | 142.51
317.39 K, Crystal 3, Vacuum adiabatic calorimetry | 143.18
318.6 K, Crystal 3, Vacuum adiabatic calorimetry | 141.68
319.35 K, Crystal 3, Vacuum adiabatic calorimetry | 142.51
320 K, Crystal 3, Vacuum adiabatic calorimetry | 142.34
320.51 K, Crystal 3, Vacuum adiabatic calorimetry | 142.01
321.31 K, Crystal 3, Vacuum adiabatic calorimetry | 142.84
322.4 K, Crystal 3, Vacuum adiabatic calorimetry | 142.76
323.26 K, Crystal 3, Vacuum adiabatic calorimetry | 143.42
324.27 K, Crystal 3, Vacuum adiabatic calorimetry | 143.42
325.2 K, Crystal 3, Vacuum adiabatic calorimetry | 144.09
326.14 K, Crystal 3, Vacuum adiabatic calorimetry | 144.09
327.14 K, Crystal 3, Vacuum adiabatic calorimetry | 144.59
327.98 K, Crystal 3, Vacuum adiabatic calorimetry | 144.75
329.07 K, Crystal 3, Vacuum adiabatic calorimetry | 145.09
330 K, Crystal 3, Vacuum adiabatic calorimetry | 145.34
330.98 K, Crystal 3, Vacuum adiabatic calorimetry | 145.59
332.87 K, Crystal 3, Vacuum adiabatic calorimetry | 146
334.4 K, Crystal 3, Small sample (50 mg) DSC | 146.33
334.77 K, Crystal 3, Vacuum adiabatic calorimetry | 146.58
336.65 K, Crystal 3, Vacuum adiabatic calorimetry | 147.08
336.9 K, Crystal 3, Small sample (50 mg) DSC | 147.17
338.52 K, Crystal 3, Vacuum adiabatic calorimetry | 147.5
339.4 K, Crystal 3, Small sample (50 mg) DSC | 148
340 K, Crystal 3, Vacuum adiabatic calorimetry | 147.91
340.21 K, Crystal 3, Vacuum adiabatic calorimetry | 148
341.82 K, Crystal 3, Vacuum adiabatic calorimetry | 148.41
341.9 K, Crystal 3, Small sample (50 mg) DSC | 148
343.88 K, Crystal 3, Vacuum adiabatic calorimetry | 149.08
344.4 K, Crystal 3, Small sample (50 mg) DSC | 148.83
345.68 K, Crystal 3, Vacuum adiabatic calorimetry | 149.58
346.9 K, Crystal 3, Small sample (50 mg) DSC | 149.66
347.49 K, Crystal 3, Vacuum adiabatic calorimetry | 150.08
349.26 K, Crystal 3, Vacuum adiabatic calorimetry | 150.49
349.4 K, Crystal 3, Small sample (50 mg) DSC | 150.49
350 K, Crystal 3, Small sample (50 mg) DSC | 150.41
351.9 K, Crystal 3, Small sample (50 mg) DSC | 151.32
354.4 K, Crystal 3, Small sample (50 mg) DSC | 151.32
356.9 K, Crystal 3, Small sample (50 mg) DSC | 152.15
359.4 K, Crystal 3, Small sample (50 mg) DSC | 152.99
360 K, Crystal 3, Small sample (50 mg) DSC | 152.74
361.9 K, Crystal 3, Small sample (50 mg) DSC | 152.99
364.4 K, Crystal 3, Small sample (50 mg) DSC | 152.99
366.9 K, Crystal 3, Small sample (50 mg) DSC | 153.82
369.4 K, Crystal 3, Small sample (50 mg) DSC | 154.65
370 K, Crystal 3, Small sample (50 mg) DSC | 154.82
371.9 K, Crystal 3, Small sample (50 mg) DSC | 155.48
374.4 K, Crystal 3, Small sample (50 mg) DSC | 155.48
376.9 K, Crystal 3, Small sample (50 mg) DSC | 156.31
379.4 K, Crystal 3, Small sample (50 mg) DSC | 156.31
380 K, Crystal 3, Small sample (50 mg) DSC | 156.73
381.9 K, Crystal 3, Small sample (50 mg) DSC | 157.14
384.4 K, Crystal 3, Small sample (50 mg) DSC | 157.14
386.9 K, Crystal 3, Small sample (50 mg) DSC | 157.97
389.4 K, Crystal 3, Small sample (50 mg) DSC | 157.97
390 K, Crystal 3, Small sample (50 mg) DSC | 158.47
391.9 K, Crystal 3, Small sample (50 mg) DSC | 158.81
394.4 K, Crystal 3, Small sample (50 mg) DSC | 159.64
396.9 K, Crystal 3, Small sample (50 mg) DSC | 159.64
399.4 K, Crystal 3, Small sample (50 mg) DSC | 160.47
400 K, Crystal 3, Small sample (50 mg) DSC | 160.14
401.9 K, Crystal 3, Small sample (50 mg) DSC | 160.47
404.4 K, Crystal 3, Small sample (50 mg) DSC | 161.3
406.9 K, Crystal 3, Small sample (50 mg) DSC | 161.3
409.4 K, Crystal 3, Small sample (50 mg) DSC | 161.3
410 K, Crystal 3, Small sample (50 mg) DSC | 161.72
411.9 K, Crystal 3, Small sample (50 mg) DSC | 162.13
414.4 K, Crystal 3, Small sample (50 mg) DSC | 162.13
416.9 K, Crystal 3, Small sample (50 mg) DSC | 162.96
419.4 K, Crystal 3, Small sample (50 mg) DSC | 162.96
420 K, Crystal 3, Small sample (50 mg) DSC | 163.13
421.9 K, Crystal 3, Small sample (50 mg) DSC | 162.96
424.4 K, Crystal 3, Small sample (50 mg) DSC | 163.8
426.9 K, Crystal 3, Small sample (50 mg) DSC | 163.8
429.4 K, Crystal 3, Small sample (50 mg) DSC | 164.63
430 K, Crystal 3, Small sample (50 mg) DSC | 164.54
431.9 K, Crystal 3, Small sample (50 mg) DSC | 164.63
434.4 K, Crystal 3, Small sample (50 mg) DSC | 165.46
436.9 K, Crystal 3, Small sample (50 mg) DSC | 165.46
439.4 K, Crystal 3, Small sample (50 mg) DSC | 166.29
440 K, Crystal 3, Small sample (50 mg) DSC | 165.96
441.9 K, Crystal 3, Small sample (50 mg) DSC | 166.29
444.4 K, Crystal 3, Small sample (50 mg) DSC | 167.12
446.9 K, Crystal 3, Small sample (50 mg) DSC | 167.12
449.4 K, Crystal 3, Small sample (50 mg) DSC | 167.12
450 K, Crystal 3, Small sample (50 mg) DSC | 167.45
